# pIC50: −log10 of the molar value. Read-outs that look alike come from different tables or passages of the source.
# Tests used:
# [1] = molecular target: T1, ABCG2 (Homo sapiens, UniProt Q9UNQ0); test: cell-based; design: full-length ABCG2-WT in MEF cells; species or system Abcg2-KO MEFs expressing human ABCG2-WT; Inhibition of ABCG2-mediated Hoechst 33342 efflux; intracellular Hoechst 33342 fluorescence accumulation, normalized to vector control; details: 0.5 uM Hoechst 33342 substrate, 2 h, 37 °C; read-out: IC50 for transport inhibition in WT
# T1 sequence (Q9UNQ0 1-655): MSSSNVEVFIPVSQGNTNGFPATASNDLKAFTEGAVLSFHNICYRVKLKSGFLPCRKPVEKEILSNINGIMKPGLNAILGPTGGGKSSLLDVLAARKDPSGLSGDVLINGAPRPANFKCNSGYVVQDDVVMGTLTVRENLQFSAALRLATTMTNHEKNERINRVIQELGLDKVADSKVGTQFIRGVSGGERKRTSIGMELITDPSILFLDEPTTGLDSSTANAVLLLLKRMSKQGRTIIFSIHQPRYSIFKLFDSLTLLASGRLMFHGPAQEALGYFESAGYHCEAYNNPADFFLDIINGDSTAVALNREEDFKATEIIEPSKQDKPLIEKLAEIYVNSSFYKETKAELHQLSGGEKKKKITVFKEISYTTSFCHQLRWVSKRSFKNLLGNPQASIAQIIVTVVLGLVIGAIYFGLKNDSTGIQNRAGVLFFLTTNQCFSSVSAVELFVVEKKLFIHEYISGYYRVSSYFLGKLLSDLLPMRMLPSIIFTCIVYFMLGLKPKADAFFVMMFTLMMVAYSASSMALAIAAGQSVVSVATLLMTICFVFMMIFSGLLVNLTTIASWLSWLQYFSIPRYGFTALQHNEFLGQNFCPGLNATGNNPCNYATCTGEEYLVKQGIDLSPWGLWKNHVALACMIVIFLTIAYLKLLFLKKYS
# Procedure: The intracellular accumulation of fluorescent Hoechst 33342, pheophorbide a, chlorin e6, and purpurin 18, ABCG2 substrates, was used to determine the function of ABCG2. […] Thereafter, the medium was removed, and cells were washed twice with 200 μL ice-cold PBS and the fluorescence of Hoechst 33342 was then quantitatively determined with a Synergy H4 microplate reader (BioTek, Winooski, VT, USA) at an excitation wavelength of 355 nm and an emission wavelength of 460 nm. The accumulation of Hoechst 33342 was normalized to protein concentration as determined using the BCA Protein Assay Kit (Pierce, Rockford, IL, USA). The data were normalized by the proportion accumulated relative (%) to vector control. For the time-dependent Hoechst 33342 accumulation assay, 10 μM Hoechst 33342 was treated for different time periods (0.5, 1, 1.5, 2, 5, 10, 20, 30, 60, and 90 min). Relative intracellular Hoechst 33342 levels in the MEFs were normalized to vector control at 90 min. For the other fluorescent substrate accumulation assay, 0.5 μM pheophorbide a, 5 μM chlorin e6, or 5 μM purpurin 18 were treated for 1 h at 37 °C in the dark. The intracellular accumulation of pheophorbide a, purpurin 18, or chlorin e6 was measured at an excitation wavelength of 405 nm and an emission wavelength of 667 nm. […] Thereafter, the medium was removed and cells were washed twice with 1 mL ice-cold PBS. […] The total radioactivity was measured by liqu Apparent EC50 and IC50 values were calculated from dose-response data using nonlinear regression analysis. All experiments were independently repeated at least three times. […] Non-polar residues are grey, polar residues are green, and acidic residues are red.
# [2] = molecular target: T1, ABCG2; test: isothermal shift assay on membranes; Hoechst […] transport inhibition; 5D3 shift; disulfide crosslinking; assay type: cell-based; design: full-length ABCG2-WT in membrane vesicles / MEF cells
# [3] = molecular target: T1, ABCG2; assay type: cell-based; design: full-length ABCG2-WT in membrane vesicles / MEF cells
# [4] = molecular target: T1, ABCG2; test: cell-based; design: full-length ABCG2-WT in MEF cells; species or system MEF (mouse embryonic fibroblasts) expressing human ABCG2-WT; Inhibition of ABCG2-mediated Hoechst 33342 transport; intracellular Hoechst 33342 fluorescence accumulation; details: ABCG2-WT, 0.5 uM Hoechst 33342; read-out: Hoechst 33342 transport inhibition IC50
# Procedure: The intracellular accumulation of fluorescent Hoechst 33342, pheophorbide a, chlorin e6, and purpurin 18, ABCG2 substrates, was used to determine the function of ABCG2. For Hoechst 33342 accumulation assay, MEFs were seeded into a 96-well black clear bottom plate (Corning #3603) at 20,000 cells/well and 0.5 μM Hoechst 33342, and either [compound left out] or the test inhibitor (0.002–10 μM) were added to the culture medium followed by incubation for 2 h at 37 °C in the dark. Thereafter, the medium was removed, and cells were washed twice with 200 μL ice-cold PBS and the fluorescence of Hoechst 33342 was then quantitatively determined with a Synergy H4 microplate reader (BioTek, Winooski, VT, USA) at an excitation wavelength of 355 nm and an emission wavelength of 460 nm. The accumulation of Hoechst 33342 was normalized to protein concentration as determined using the BCA Protein Assay Kit (Pierce, Rockford, IL, USA). […] The intracellular accumulation of pheophorbide a, purpurin 18, or chlorin e6 was measured at an excitation wavelength of 405 nm and an emission wavelength of 667 nm. […] The total radioactivity was measured by liqu Fig. 4 N436A substitution affects inhibitor interaction. a–d Representative snapshots from MDS of tariquidar interacting with ABCG2. a ABCG2-WT with residues within 4 Å of tariquidar are in surface representation. […]
pIC50 [1],Compound,isothermal shift assay on membranes; Hoechst 33342 transport inhibition; 5D3 shi [2],isothermal shift assay on membranes; Hoechst 33342 transport inhibition; 5D3 shi [3],pIC50 [4]
7.30,CS(=O)(=O)CCNCc1ccc(-c2ccc3ncnc(Nc4ccc(OCc5cccc(F)c5)c(Cl)c4)c3c2)o1 [lapatinib],"ABCG2 inhibitors, Ko143, tariquidar, and lapatinib, strongly and dose-dependently thermally stabilized ABCG2-WT",,
,COc1cc2c(cc1OC)CN(CCc1ccc(NC(=O)c3cc(OC)c(OC)cc3NC(=O)c3cnc4ccccc4c3)cc1)CC2 [tariquidar],,"ABCG2 inhibitors, Ko143, tariquidar, and lapatinib, strongly and dose-dependently thermally stabilized ABCG2-WT",7.10

# Source: article PMC10439158, “The net electrostatic potential and hydration of ABCG2 affect substrate transport” (Nature Communications, 2023)
